From patent US10077247B2, “Tricyclic spiro compound” (ONO PHARMACEUTICAL CO., LTD., priority 2015, dated 2018)

Assays:
[1] = system: mouse colorectal cancer cell line CT26; assay: Anti-tumor effect in allograft model of mouse colorectal cancer cell line CT26; format: in vivo; conditions: 10 mg/kg orally, twice a day, Balb/C mouse, 21 days from transplant
Experimental: The anti-tumor effect of the present compound was evaluated in an allograft model of the mouse colorectal cancer cell line CT26. CT26 was cultured in a CO2 incubator, using an RPMI-1640 medium containing 10 vol % inactivated fetal bovine serum (FBS), 100 units/mL of penicillin, and 100 µg/mL of streptomycin. On the day of transplant, CT26 was harvested after removing the culture supernatant, and washing the cells with phosphate buffer (hereinafter, “PBS”). The harvested CT26 cells were suspended in Hank's buffer to obtain transplant cells. The transplant cells (3×10^5) were then subcutaneously transplanted to the right back of a female Balb/C mouse (Charles River Laboratories Japan Inc.) under anesthesia. The present compound was orally administered in a dose of 10 mg/kg, once on the day of transplant, and twice a day from the next day. For the control group, distilled water was administered for the same duration as in the present compound-administered group. The tumor volume (mm^3) was determined by calculating a relative tumor volume from the measured tumor lengths along the minor axis and major axis using a digital caliper, according to the following formulae 1 and 2. Tumor volume=[(minor axis)^2×major axis]/2 Relative tumor volume=medium value of tumor volumes of each group after 21 days from transplant/medium value of tumor volume of control group after 21 days from transplant

[2] = Pharmacokinetics test (hepatic microsome stability test); conditions: human hepatic microsome 1 mg/mL, 37° C., 60 min, 1 μmol/L
rat EP4 receptor = rat EP4 receptor (Rattus norvegicus (Rat), UniProt P43114); assay: EP4 antagonistic activity measurement using prostanoid receptor subtype expressing cells (cAMP); format: cell-based; conditions: CHO cells expressing rat EP4 receptor; inhibition of cAMP production by PGE2 10 nM
Experimental: CHO cells expressing rat EP4 receptor subtypes were prepared according to the methods of Nishigaki et al. (FEBS Letters, Vol. 364, p. 339-341, 1995), and used for experiment. Cultured subconfluent cells were detached, and suspended in an assay medium (MEM containing 1 mmol/L IBMX, 1% HSA) in a concentration of 1×10^6 cells/mL. For reaction, PGE2 was added to the cell suspension (25 μL) in a final concentration of 10 nmol/L, either alone or as a 25-μL PGE2 solution containing the test compound. After 30 minutes of reaction at room temperature, the amount of cAMP in the cells was quantified according to the method in the descriptions of the cAMP assay kit (CISBIO).
The antagonistic effect (IC50 value) of the test compound was calculated as a value that represents an inhibition rate against a reaction with PGE2 alone at 10 nM, a concentration that produces a submaximal cAMP producing effect.

rat EP4 receptor, sequence (P43114 whole entry): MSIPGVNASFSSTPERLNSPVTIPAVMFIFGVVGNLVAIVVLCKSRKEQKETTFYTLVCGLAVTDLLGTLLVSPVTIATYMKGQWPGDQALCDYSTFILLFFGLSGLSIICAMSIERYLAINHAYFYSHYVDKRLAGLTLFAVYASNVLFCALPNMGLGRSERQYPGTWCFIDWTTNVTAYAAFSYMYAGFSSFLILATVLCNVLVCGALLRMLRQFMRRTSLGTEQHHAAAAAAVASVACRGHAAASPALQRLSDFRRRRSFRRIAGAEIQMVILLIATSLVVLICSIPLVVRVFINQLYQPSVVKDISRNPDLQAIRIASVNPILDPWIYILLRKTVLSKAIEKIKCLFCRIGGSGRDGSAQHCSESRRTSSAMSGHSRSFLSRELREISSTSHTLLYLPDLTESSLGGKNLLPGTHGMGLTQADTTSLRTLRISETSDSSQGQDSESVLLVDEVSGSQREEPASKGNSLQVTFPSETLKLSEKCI

Row | Structure (SMILES) | Remaining rate (%) [2] [%] | IC50 (rat EP4 receptor) [nM] | tumor growth inhibitory effect (relative tumor volume, FIG. 1) [1]
1 | CC(C)NC(=O)c1ccc2c(c1)[C@]1(CCO2)C[C@H]1C(=O)Nc1cc(C#N)ccc1CCCC(=O)O [Example 2-13, 4-[4-Cyano-2-({[(2′R,4S)-6-(isopropylcarbamoyl)-2,3-dihydrospiro[chromene-4,1′-cyclopropan]-2′-yl]carbonyl}amino)phenyl]butanoic acid] | 100 | 7.8 | tumor growth inhibitory effect
2 | Cc1ccc(-c2ccc3c(c2)[C@]2(CCO3)C[C@H]2C(=O)Nc2cc(C#N)ccc2CCCC(=O)O)cn1 [Example 7-16, 4-[4-Cyano-2-({[(2′R,4S)-6-(6-methyl-3-pyridinyl)-2,3-dihydrospiro[chromene-4,1′-cyclopropan]-2′-yl]carbonyl}amino)phenyl]butanoic acid] | 80 | 5.7 | –
3 | N#Cc1ccc(CCCC(=O)O)c(NC(=O)[C@@H]2C[C@]23CCOc2ccc(-c4ccc(F)cn4)cc23)c1 [Example 10-9, 4-[4-Cyano-2-({[(2′R,4S)-6-(5-fluoro-2-pyridinyl)-2,3-dihydrospiro[chromene-4,1′-cyclopropan]-2′-yl]carbonyl}amino)phenyl]butanoic acid] | 75 | 6.7 | –

Stronger by IC50 (rat EP4 receptor), values ahead:

Row | Remaining rate (%) [2] [%] | IC50 (rat EP4 receptor) [nM] | Structure (SMILES) | tumor growth inhibitory effect (relative tumor volume, FIG. 1) [1]
4 | 100 | 5.4 | N#Cc1ccc(CCCC(=O)O)c(NC(=O)[C@@H]2C[C@]23CCOc2ccc(C(=O)Nc4ncccn4)cc23)c1 [Example 2-36, 4-[4-Cyano-2-({[(2′R,4S)-6-(2-pyrimidinylcarbamoyl)-2,3-dihydrospiro[chromene-4,1′-cyclopropan]-2′-yl]carbonyl}amino)phenyl]butanoic acid] | –
5 | 97 | 5.3 | COCCNC(=O)c1ccc2c(c1)[C@]1(CCO2)C[C@H]1C(=O)Nc1cc(C#N)ccc1CCCC(=O)O [Example 2-2, 4-{4-Cyano-2-[({(2′R,4S)-6-[(2-methoxyethyl)carbamoyl]-2,3-dihydrospiro[chromene-4,1′-cyclopropan]-2′-yl}carbonyl)amino]phenyl}butanoic acid] | tumor growth inhibitory effect
6 | 89 | 4.3 | CNC(=O)c1ccc2c(c1)[C@@]1(C[C@H]1C(=O)Nc1cc(C#N)ccc1CCCC(=O)O)CC2(C)C [Example 38-2, 4-[4-Cyano-2-({[(1S,2R)-3′,3′-dimethyl-6′-(methylcarbamoyl)-2′,3′-dihydrospiro[cyclopropane-1, 1′-inden]-2-yl]carbonyl}amino)phenyl]butanoic acid] | –
